Experimental data published in article PMC11125359 (Pharmaceuticals, 2024).
Where two headings read alike, the source gives them in different places.

Tests used:
α-amylase = assay: α-Amylase inhibition (anti-diabetic); type: biochemical; details: equal concentrations (1000 µg/mL); mean ± SE
α-glucosidase = assay: α-Glucosidase inhibition (anti-diabetic); type: biochemical; details: equal concentrations (1000 µg/mL); mean ± SE
[1] = target: acetylcholinesterase (AChE) (Homo sapiens, UniProt P22303); assay: biochemical; details: same concentration (1000 µg/mL); mean ± SE
[2] = target: bovine serum albumin (BSA) (Bos taurus, UniProt P02769); details: equal concentrations (1000 µg/mL); mean ± SE
[3] = test system: proteinase enzyme (trypsin); assay: Proteinase enzyme inhibition (anti-inflammatory); type: biochemical; details: equal concentrations (1000 µg/mL); mean ± SE
[4] = test system: human colon cancer (Caco-2) cell line; assay: cells; type: cell-based; details: for IC50: Homo sapiens, read-out: Cytotoxic activity IC50, Colon (Caco-2)
[5] = Cytotoxic activity, MTT assay, normal lung (WI-38); type: cell-based; details: human
caspase-3 [6] = assay: Caspase-3 ELISA in treated A549 cells; type: cell-based, human; details: DMSO control 85.92 ± 0.12
Bcl-2 [7] = assay: Bcl-2 ELISA in treated A549 cells; type: cell-based, human; details: DMSO control 9.83 ± 0.05
caspase-3 [8] = assay: Caspase-3 ELISA in treated Caco-2 cells; type: cell-based, human; details: DMSO control 97.06 ± 0.14
Bcl-2 [9] = assay: Bcl-2 ELISA in treated Caco-2 cells; type: cell-based, human; details: DMSO control 7.99 ± 0.08
[10] = Iron-reducing power (IRP); details: equal concentrations (1000 µg/mL); mean ± SE, three replicates
Experimental: (§1) All in vitro biological activities were assessed in the tested compounds at equal concentrations (1000 µg/mL). All assays were carried out in triplicate.
In vitro biological activities
(§2) The total antioxidant capacity (TAC) was determined by analyzing the green phosphate/Mo5+ complex at a wavelength (λ) of 695 nm, following the procedure described by Prieto
(§3) et al. Samples (at each concentration) were mixed with a reagent solution containing 0.3 N sulfuric
(§4) acid, 28 mM sodium phosphate, and 4 mM ammonium molybdate. Methanol (80%) was used in place
(§5) of the sample for the blank. The tubes were sealed and incubated in a boiling water bath for 90
(§6) minutes. After cooling to room temperature, the absorbance was measured at 695 nm against the
(§7) blank. Ascorbic acid was used at the same concentrations as a standard. The antioxidant capacity was
(§8) expressed as mg gallic acid equivalent per gram weight.
(§9) The iron reducing power was determined as µg/mL using the method proposed by Oyaizu
(§10) In brief, 1ml of the tested sample (at each concentration) was combined with 1mL of 200mM
(§11) sodium phosphate buffer (pH 6.6) and 1mL of 1% potassium ferricyanide. The mixture was then
(§12) incubated at 50°C for 20 minutes, followed by the addition of 1mL of trichloroacetic acid (10%). After
(§13) centrifugation at 2000rpm for 10 minutes, the upper layer solution (2.5 mL) was mixed with 2.5 mL of double deionized water and 1mL of fresh ferric chloride (0.1%). The absorbance was measured at
(§14) 700nm against a blank prepared without the sample. Ascorbic acid was used at the same
(§15) concentrations as a standard. A high absorbance at 700nm indicates a higher reducing power in the
(§16) The 1,1-Diphenyl-2-picryl-hydrazyl (DPPH) radical scavenging activities were evaluated using the method described by Rahman et al. An antioxidant substance capable of donating a
(§17) hydrogen atom to a solution containing DPPH- can reduce the stable free radical, causing the solution
(§18) to change color from violet to pale yellow. The remaining DPPH- radical was quantified by
(§19) nm using a spectroscopic method. Two milliliters of a DPPH solution (100 µM) in ethanol were mixed
(§20) with 2 mL of the sample (at each concentration). The reaction mixture for each concentration was
(§21) thoroughly vortexed and then incubated in the dark at room temperature for 30 minutes. The
(§22) absorbance was then measured spectrophotometrically at 518 nm against a blank (ethanol). For the
(§23) control, 2 mL of ethanol was added instead of the sample and run simultaneously with the test.
(§24) Ascorbic acid was used at the same concentrations as a positive control. Percent inhibition of the
(§25) DPPH free radical was calculated. The median inhibitory concentration (IC 50) for each tested
(§26) The procedure for the 2,2'-azinobis-(3-ethylbenzothiazoline-6-sulfonic acid) (ABTS) assay
(§27) potassium persulfate solution (2.4 mM). The working solution was prepared by mixing the two stock
(§28) solutions in equal quantities and allowing them to react at room temperature in a dark place for 14
(§29) hours. The solution was then diluted by mixing 1 mL of ABTS solution with 60 mL of methanol to
(§30) was prepared for each assay. The tested samples (at each concentration) were allowed to react with 1
(§31) mL of the ABTS solution, and the absorbance was taken at 734 nm after 7 minutes using a
(§32) spectrophotometer. The ABTS scavenging capacities of the samples were compared with that of
(§33) ascorbic acid (at the same concentrations).

[11] = ABTS radical scavenging assay; details: equal concentrations (1000 µg/mL); mean ± SE
Experimental: as §1
In vitro biological activities
as §2, §3, §4, §5, §6, §7, §8, §9, §10, §11, §12, §13, §14, §15, §16, §17, §18, §19, §20, §21, §22, §23, §24, §25, §26, §27, §28, §29, §30, §31, §32, §33

[12] = DPPH radical-scavenging activity; details: read-out: DPPH (IC50); mean ± SE, three replicates
Experimental: In vitro biological activities
as §16, §17, §18, §19, §20, §21, §22, §23, §24, §25

[13] = test system: human lung cancer (A549) cell line; assay: Cytotoxic activity, MTT assay, lung (A549); details: for Viability %, A549, 1st concentration: Conc.: 5a 13.45, 5d 12.64, 5e 12.29, 5f 11.81, 7a 12.72, 7f 11.24, DOX 11.50; for Viability %, A549, 2nd concentration: Conc.: 5a 26.91, 5d 25.27, 5e 24.58, 5f 23.63, 7a 25.43, 7f 22.48, DOX 23.00; for Viability %, A549, 3rd concentration: Conc.: 5a 53.81, 5d 50.55, 5e 49.15, 5f 47.26, 7a 50.86, 7f 44.96, DOX 46.00; for Viability %, A549, 4th concentration: Conc.: 5a 107.63, 5d 101.09, 5e 98.31, 5f 94.51, 7a 101.72, 7f 89.93, DOX 91.99; for Viability %, A549, 5th concentration: Conc.: 5a 215.26, 5d 202.19, 5e 196.61, 5f 189.03, 7a 203.44, 7f 179.85, DOX 183.99; for IC50: Homo sapiens, A549, 48 h, read-out: Cytotoxic activity IC50, Lung (A549)
Experimental: (§34) It will be assayed against human lung cancer (A549) and colon (Caco-2) cell line in
(§35) comparison with normal lung (WI-38) cell line using 3-(4,5-dimethythiazol-2-yl)-2,5-diphenyl
(§36) tetrazolium bromide (MTT) assay by determining the optical density (OD) at 570 nm according to the
(§37) The cells were dispensed in a 96-well sterile microplate (3
(§38) µL of each compound or doxorubicin (positive control, in DMSO) for 48 h in a serum free medium
(§39) prior to the MTT assay. Subsequently, the media were carefully removed, and 40 µL of MTT (2.5
(§40) mg/mL) was added to each well and then incubated for an additional 4 h. Purple formazan dye
(§41) crystals were solubilized by the addition of 200 µL of DMSO. The absorbance was measured at 570 nm using a SpectraMax Paradigm Multi-Mode microplate reader. The relative cell viability was
(§42) experiments were conducted in triplicate. Percent of the cell-growth inhibition (%) and the IC 50 was
(§43) calculated using IC 50 calculation software. The concentrations used for calculating the IC 50 depend on

[14] = Total antioxidant capacity (TAC), phosphomolybdenum method; details: equal concentrations (1000 µg/mL); mean ± SE, three replicates
Experimental: as §1
In vitro biological activities
as §2, §3, §4, §5, §6, §7, §8, §9, §10, §11, §12, §13, §14, §15, §16, §17, §18, §19, §20, §21, §22, §23, §24, §25, §26, §27, §28, §29, §30, §31, §32, §33

[15] = test system: human lung cancer (A549) cell line; details: 48 h
Experimental: as §34, §35, §36, §37, §38, §39, §40, §41, §42, §43

[16] = Conc.: 5a 13.45, 5d 12.64, 5e 12.29, 5f 11.81, 7a 12.72, 7f 11.24, DOX 11.50
[17] = Conc.: 5a 26.91, 5d 25.27, 5e 24.58, 5f 23.63, 7a 25.43, 7f 22.48, DOX 23.00
[18] = Conc.: 5a 53.81, 5d 50.55, 5e 49.15, 5f 47.26, 7a 50.86, 7f 44.96, DOX 46.00
[19] = Conc.: 5a 107.63, 5d 101.09, 5e 98.31, 5f 94.51, 7a 101.72, 7f 89.93, DOX 91.99
[20] = Conc.: 5a 215.26, 5d 202.19, 5e 196.61, 5f 189.03, 7a 203.44, 7f 179.85, DOX 183.99
[21] = IC50 on normal cells (WI-38)/IC50 on Caco-2
[22] = WI-38 normal lung cells, Conc. as printed: 5a 53.81, 5d 50.55, 5e 49.15, 5f 47.26, 7a 50.86, 7f 44.96, DOX 46.00, read-out: Viability %, WI-38, 3rd concentration
[23] = WI-38 normal lung cells, Conc. as printed: 5a 107.63, 5d 101.09, 5e 98.31, 5f 94.51, 7a 101.72, 7f 89.93, DOX 91.99, read-out: Viability %, WI-38, 4th concentration
[24] = WI-38 normal lung cells, Conc.: 5a 13.45, 5d 12.64, 5e 12.29, 5f 11.81, 7a 12.72, 7f 11.24, DOX 11.50, read-out: Viability %, WI-38, 1st concentration
[25] = WI-38 normal lung cells, Conc.: 5a 26.91, 5d 25.27, 5e 24.58, 5f 23.63, 7a 25.43, 7f 22.48, DOX 23.00, read-out: Viability %, WI-38, 2nd concentration
[26] = WI-38 normal lung cells, Conc.: 5a 215.26, 5d 202.19, 5e 196.61, 5f 189.03, 7a 203.44, 7f 179.85, DOX 183.99, read-out: Viability %, WI-38, 5th concentration
[27] = WI-38 normal lung cells, 48 h, MTT, mean ± SE, read-out: Cytotoxic activity IC50, Normal Lung (WI-38)

acetylcholinesterase (AChE), sequence (P22303 32-614, species assumed): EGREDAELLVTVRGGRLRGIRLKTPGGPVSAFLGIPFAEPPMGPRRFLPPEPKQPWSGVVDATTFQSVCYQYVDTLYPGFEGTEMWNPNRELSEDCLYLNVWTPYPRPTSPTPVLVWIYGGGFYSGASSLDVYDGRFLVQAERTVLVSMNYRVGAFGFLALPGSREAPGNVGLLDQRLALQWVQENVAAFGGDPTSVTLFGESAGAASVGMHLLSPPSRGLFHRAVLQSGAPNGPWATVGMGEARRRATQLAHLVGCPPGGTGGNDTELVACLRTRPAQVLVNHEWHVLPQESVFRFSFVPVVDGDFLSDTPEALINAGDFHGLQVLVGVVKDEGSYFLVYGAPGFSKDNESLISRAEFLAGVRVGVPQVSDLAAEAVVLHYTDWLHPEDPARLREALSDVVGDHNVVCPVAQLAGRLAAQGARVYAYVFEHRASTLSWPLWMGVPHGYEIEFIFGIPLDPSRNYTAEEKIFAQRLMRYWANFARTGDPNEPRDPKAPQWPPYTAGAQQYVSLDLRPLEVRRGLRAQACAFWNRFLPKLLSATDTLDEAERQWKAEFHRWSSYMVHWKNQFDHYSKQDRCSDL
bovine serum albumin (BSA), sequence (P02769 25-607): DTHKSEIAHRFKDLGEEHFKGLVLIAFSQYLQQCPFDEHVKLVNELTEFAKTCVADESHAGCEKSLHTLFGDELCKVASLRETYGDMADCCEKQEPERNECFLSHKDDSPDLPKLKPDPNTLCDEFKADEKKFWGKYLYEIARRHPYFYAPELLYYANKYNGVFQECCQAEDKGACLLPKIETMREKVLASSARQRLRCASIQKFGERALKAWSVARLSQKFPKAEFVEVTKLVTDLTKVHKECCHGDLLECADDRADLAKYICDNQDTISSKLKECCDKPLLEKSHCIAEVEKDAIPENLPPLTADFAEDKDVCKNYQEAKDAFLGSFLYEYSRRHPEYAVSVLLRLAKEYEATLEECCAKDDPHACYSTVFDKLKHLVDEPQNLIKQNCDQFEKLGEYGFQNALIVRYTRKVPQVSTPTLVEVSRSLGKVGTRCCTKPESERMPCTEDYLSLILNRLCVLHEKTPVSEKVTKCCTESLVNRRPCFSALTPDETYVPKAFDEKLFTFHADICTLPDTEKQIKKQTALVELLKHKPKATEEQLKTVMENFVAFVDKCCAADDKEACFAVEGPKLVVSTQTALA

| SMILES | Inhibition (%) α-Amylase (α-amylase) [%] | Inhibition (%) α-Glucosidase (α-glucosidase) [%] | inhibition at 1000 µg/mL [1] [%] | Inhibition (%) Protein Denaturation [2] [%] | Inhibition (%) Proteinase [3] [%] | Viability %, Caco-2, 1st concentration [4, 16] [%] | Viability %, Caco-2, 2nd concentration [4, 17] [%] | Viability %, Caco-2, 3rd concentration [4, 18] [%] | Viability %, Caco-2, 4th concentration [4, 19] [%] | Viability %, Caco-2, 5th concentration [4, 20] [%] | IC50 ([4]; Caco-2, 48 h, MTT, mean ± SE) [µM] | Therapeutic Index (TI), Colon (Caco-2) [4, 21] | viability at 48 h [5, 22] [%] | viability at 48 h [5, 23] [%] | viability at 48 h [5, 24] [%] | viability at 48 h [5, 25] [%] | viability at 48 h [5, 26] [%] | Caspase-3 level, Lung (A549) (caspase-3 [6]) [pg/mL] | Bcl-2 level, Lung (A549) (Bcl-2 [7]) [ng/mL] | IC50 [13] [µM] | also measured |
| --- | --- | --- | --- | --- | --- | --- | --- | --- | --- | --- | --- | --- | --- | --- | --- | --- | --- | --- | --- | --- | --- |
| COc1ccc(Nc2n[nH]c(N=Cc3ccc(N4CCCCC4)cc3)c2C(=O)Nc2ccc(Cl)cc2)cc1 [5f] | 31.77 ± 0.05 | 27.33 ± 0.05 | 42.76 ± 0.03 | 27.28 ± 0.03 | 23.72 ± 0.03 | 89.43 | 80.91 | 61.88 | 39.72 | 32.34 | 61.98 ± 0.12 | 7.95 | 76 | 60.7 | 87.9 | 82 | 44.8 | 236.29 ± 0.33 | 3.57 ± 0.02 | 60.45 ± 0.12 | IC50 at 48 h [5, 27]: 493 ± 9.88 µM; Caspase-3 level, Colon (Caco-2) (caspase-3 [8]): 266.92 ± 0.39 pg/mL; Bcl-2 level, Colon (Caco-2) (Bcl-2 [9]): 2.91 ± 0.03 ng/mL; Iron-Reducing Power (IRP) [10]: 34.85 ± 0.07 µg/mL; ABTS (%) inhibition [11]: 76.74 ± 0.05%; IC50 [12]: 22.83 ± 0.01 µM; Viability %, A549, 1st concentration [13]: 97.46%; Viability %, A549, 2nd concentration [13]: 87.31%; Viability %, A549, 3rd concentration [13]: 60.91%; Viability %, A549, 4th concentration [13]: 46.48%; Viability %, A549, 5th concentration [13]: 20.20%; Total Antioxidant Capacity (TAC) [14]: 53.14 ± 0.20 mg Gallic Acid/g |
| Cc1c(C=Nc2[nH]nc(Nc3ccccc3)c2C(=O)Nc2ccccc2)c(=O)n(-c2ccccc2)n1C [7a] | 31.30 ± 0.05 | 26.91 ± 0.05 | 42.12 ± 0.03 | 26.87 ± 0.03 | 23.37 ± 0.03 | 70.21 | 50.65 | 40.04 | 26.27 | 22.93 | 42.42 ± 0.18 | 17.35 | 82.7 | 76.8 | 98.7 | 90.7 | 62.7 | 322.21 ± 0.45 | 2.62 ± 0.01 | 49.4 ± 0.18 | IC50 at 48 h [5, 27]: 736 ± 7.95 µM; Caspase-3 level, Colon (Caco-2) (caspase-3 [8]): 363.98 ± 0.54 pg/mL; Bcl-2 level, Colon (Caco-2) (Bcl-2 [9]): 2.13 ± 0.02 ng/mL; Iron-Reducing Power (IRP) [10]: 34.33 ± 0.07 µg/mL; ABTS (%) inhibition [11]: 75.59 ± 0.05%; IC50 [12]: 24.94 ± 0.01 µM; Viability %, A549, 1st concentration [13]: 90.96%; Viability %, A549, 2nd concentration [13]: 79.91%; Viability %, A549, 3rd concentration [13]: 48.51%; Viability %, A549, 4th concentration [13]: 37.08%; Viability %, A549, 5th concentration [13]: 18.60%; Total Antioxidant Capacity (TAC) [14]: 52.34 ± 0.19 mg Gallic Acid/g |
| COc1ccc(Nc2n[nH]c(N=Cc3c(C)n(C)n(-c4ccccc4)c3=O)c2C(=O)Nc2ccc(Cl)cc2)cc1 [7f] | 32.31 ± 0.05 | 27.79 ± 0.05 | 62.11 ± 0.04 | 27.75 ± 0.03 | 24.13 ± 0.03 | 81.68 | 73.16 | 54.13 | 31.97 | 24.59 | 49.01 ± 0.24 | 11.06 | 79.3 | 73.3 | 95.2 | 87.2 | 59.2 | 244.88 ± 0.34 | 3.45 ± 0.02 | 55.74 ± 0.24 | Inhibition (%) Acetylcholinesterase [1]: 62.00 ± 0.04%; IC50 at 48 h [5, 27]: 543 ± 8.52 µM; Caspase-3 level, Colon (Caco-2) (caspase-3 [8]): 276.62 ± 0.41 pg/mL; Bcl-2 level, Colon (Caco-2) (Bcl-2 [9]): 2.80 ± 0.03 ng/mL; Iron-Reducing Power (IRP) [10]: 35.45 ± 0.07 µg/mL; ABTS (%) inhibition [11]: 78.05 ± 0.05%; IC50 [12]: 21.37 ± 0.01 µM; Viability %, A549, 1st concentration [13]: 96.21%; Viability %, A549, 2nd concentration [13]: 86.06%; Viability %, A549, 3rd concentration [13]: 59.66%; Viability %, A549, 4th concentration [13]: 45.23%; Viability %, A549, 5th concentration [13]: 18.95%; Total Antioxidant Capacity (TAC) [14]: 54.04 ± 0.20 mg Gallic Acid/g |
| COc1cccc2c1C(=O)c1c(O)c3c(c(O)c1C2=O)C[C@@](O)(C(=O)CO)C[C@@H]3O[C@H]1C[C@H](N)[C@H](O)[C@H](C)O1 [Doxorubicin, reference compound] |  |  |  |  |  |  |  |  |  |  |  |  |  |  |  |  |  | 330.80 ± 0.46 | 2.55 ± 0.01 | 36.45 ± 0.16 | Therapeutic Index (TI), Colon (Caco-2) ([4]; Caco-2): 5.55; IC50 ([4]; Caco-2, 48 h): 54.94 ± 0.16 µM; Viability %, Caco-2, 1st concentration ([4]; human, Caco-2, 48 h): 72.32%; Viability %, Caco-2, 2nd concentration ([4]; human, Caco-2, 48 h): 50.77%; Viability %, Caco-2, 3rd concentration ([4]; human, Caco-2, 48 h): 41.86%; Viability %, Caco-2, 4th concentration ([4]; human, Caco-2, 48 h): 23.02%; Viability %, Caco-2, 5th concentration ([4]; human, Caco-2, 48 h): 20.05%; IC50 at 48 h [5]: 305 ± 4.72 µM; viability at 48 h ([5]; Viability %, WI-38, 1st concentration): 77.5%; viability at 48 h ([5]; Viability %, WI-38, 2nd concentration): 69.1%; viability at 48 h ([5]; Viability %, WI-38, 3rd concentration): 62.3%; viability at 48 h ([5]; Viability %, WI-38, 4th concentration): 52.7%; viability at 48 h ([5]; Viability %, WI-38, 5th concentration): 38.5%; Viability %, A549, 1st concentration [15]: 80.86%; Viability %, A549, 2nd concentration [15]: 69.31%; Viability %, A549, 3rd concentration [15]: 36.91%; Viability %, A549, 4th concentration [15]: 18.92%; Viability %, A549, 5th concentration [15]: 11.20% |
